Test results published in patent US20140248254A1, “THE USE OF ACHE AS NUCLEASE” (priority 2011, published 2014).

Biological target: T1, DNase activity of AChE (Homo AChE protein) (Homo sapiens, UniProt P22303)
T1 construct: AChE 1-547AA corresponding to human; AChE1-548AA corresponding to mouse; made in house
Test: Effect of metal cations and chelators on DNase activity of Homo AChE
Assay type: biochemical
Conditions: 2.5 mM CaCl2, 5 mM MgCl2, 0.5 mM EGTA, 0.5 mM EDTA; 6 h
Description: A. In the presence of 2.5 mM CaCl2, 5 mM MgCl2, 0.5 mM EGTA, 0.5 mM EDTA or the combination thereof, plasmid DNA (pEGFP-C1 plasmid) was incubated with Homo AChE protein for 6 h.
Purified plasmid DNA was used as substrate for detection. In the experiment of cleaving of plasmid DNA, 0.15 μg of plasmid DNA with a transfection-grade purity (pEGFP-C1 plasmid, Clotech) was added to 10 μl buffer system containing (5.0 mM Tris-HCl, PH 7.5; 2.5 mM CaCl2; 5.0 mM MgCl2). 1 μg (or an amount indicated in Examples) of purified AChE proteins of human or mouse origin (AChE 1-547AA corresponding to human; AChE1-548AA corresponding to mouse) was further added, and incubated in 37° C. Sampling at 6 h (or timepoints indicated in Examples).

T1 sequence (P22303 32-578): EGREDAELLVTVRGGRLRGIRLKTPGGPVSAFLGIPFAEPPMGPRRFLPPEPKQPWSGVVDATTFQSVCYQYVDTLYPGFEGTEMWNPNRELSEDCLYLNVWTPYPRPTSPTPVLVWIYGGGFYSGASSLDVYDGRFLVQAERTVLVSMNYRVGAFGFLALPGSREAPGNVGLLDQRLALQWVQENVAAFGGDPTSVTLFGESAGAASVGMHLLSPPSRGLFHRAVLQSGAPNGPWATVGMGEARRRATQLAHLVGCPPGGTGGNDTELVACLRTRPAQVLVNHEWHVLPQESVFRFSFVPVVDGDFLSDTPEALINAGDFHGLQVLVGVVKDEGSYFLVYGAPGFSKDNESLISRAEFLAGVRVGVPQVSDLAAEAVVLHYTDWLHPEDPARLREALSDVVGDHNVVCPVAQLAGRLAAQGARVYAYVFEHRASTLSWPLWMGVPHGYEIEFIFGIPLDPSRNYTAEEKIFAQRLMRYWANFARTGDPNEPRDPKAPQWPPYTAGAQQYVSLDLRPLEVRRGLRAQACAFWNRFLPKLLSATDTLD

SMILES | effect on activity of AChE cleaving DNA
O=C(O)CN(CCN(CC(=O)O)CC(=O)O)CC(=O)O [EDTA] | significantly inhibited
O=C(O)CN(CCOCCOCCN(CC(=O)O)CC(=O)O)CC(=O)O [EGTA] | not obvious
